Reference: patent US6410590B1, “Compounds having antitumor activity: process for their preparation and pharmaceutical compositions containing them” (Dr. Reddy's Research Foundation, priority 2000, dated 2002)
Read-outs that look alike come from different tables or passages of the source.

Key:
MCF-7/ADR = test: Sulforhodamine B growth inhibition, breast panel; assay type: cell-based, human; conditions: 48 h, SRB, read-out: GROWTH INHIBITION (GI 50)
Description: (§1) Each test compound was screened against a battery of cell lines representing eight different types of cancer. In a typical procedure 1×10^4 cells were seeded into each well of 96-well plates in 100 μL volume of RPMI-1640 containing antibiotics and 10% FCS.
(§2) The plates were incubated at 37° C. in presence of CO2. After 24 h, test compounds were evaluated at five 10 fold dilutions ranging from 100 to 0.01 μM. To each test well 100 μL of test compound solution was added and medium with vehicle was added to control wells and the plates were further incubated. After 48 h of incubation, plates were terminated by Sulforhodamine B method.
(§3) The optical density which is proportional to protein mass, is then read by automated spectrophotometric plate readers at a wavelength of 515 nm.

U251 = test: Sulforhodamine B growth inhibition, CNS panel; assay type: cell-based, human; conditions: SRB, read-out: GROWTH INHIBITION (GI 50)
Description: as §1, §2, §3

SW-620 = test: Sulforhodamine B growth inhibition, colon panel; assay type: cell-based, human; conditions: SW-620, colon, 48 h, SRB, read-out: GROWTH INHIBITION (GI 50)
Description: as §1, §2, §3

H522 = test: Sulforhodamine B growth inhibition, lung panel; assay type: cell-based, human; conditions: SRB, read-out: GROWTH INHIBITION (GI 50)
Description: as §1, §2, §3

UACC62 = test: Sulforhodamine B growth inhibition, melanoma panel; assay type: cell-based; conditions: Homo sapiens, UACC-62, 48 h, SRB, read-out: GROWTH INHIBITION (GI 50)
Description: as §1, §2, §3

SKOV-3 = test: Sulforhodamine B growth inhibition, ovarian panel; assay type: cell-based, human; conditions: SKOV-3, ovarian, 48 h, SRB, read-out: GROWTH INHIBITION (GI 50)
Description: as §1, §2, §3

DU145 = test: Sulforhodamine B growth inhibition, prostate panel; assay type: cell-based, human; conditions: SRB, read-out: GROWTH INHIBITION (GI 50)
Description: as §1, §2, §3

A498 = test: Sulforhodamine B growth inhibition, renal panel; assay type: cell-based, human; conditions: 48 h, SRB, read-out: GROWTH INHIBITION (GI 50)
Description: as §1, §2, §3

tumor cell lines = conditions: cited from earlier work
M14 = test: Sulforhodamine B growth inhibition, melanoma panel; assay type: cell-based, human; conditions: 48 h, SRB, read-out: GROWTH INHIBITION (GI 50)
Description: as §1, §2, §3

[1] = Plasma triglyceride and body weight reduction in Swiss albino mice; assay type: in vivo; conditions: for Percentage reduction TG: plasma triglyceride
Description: (b) Plasma triglyceride and body weight reduction in Swiss albino mice Male Swiss albino mice (SAM) were obtained from NIN and housed in DRF animal house. All these animals were maintained under 12 hour light and dark cycle at 25±1° C. Animals were given standard laboratory chow (NIN, Hyderabad, India) and water, ad libitum. SAM of 20-25 g body weight range (Oliver, P., Plancke, M. O., Marzin, D., Clavey, V., Sauzieres, J and Fruchart, J. C. Effects of fenofibrate, gemfibrozil and nicotinic acid on plasma lipoprotein levels in normal and hyperlipidemic mice. Atherosclerosis. 1988. 70: 107-114).
The test compounds were administered orally to Swiss albino mice at 0.3 to 500 mg/kg dose for 6 days. Control mice were treated with vehicle (Chremophore/DMSO/H2O; dose 10 ml/kg).
The blood samples were collected in fed state 1 hour after drug administration on 0 and 6 day of treatment. The blood was collected from the retro-orbital sinus through heparinised capillary in EDTA containing tubes. After centrifugation, plasma sample was separated for triglyceride (Wieland, O. Methods of Enzymatic analysis. Bergermeyer, H. O., Ed., 1963. 211-214; Trinder, P. Ann. Clin. Biochem. 1969. 6: 24-27). Measurement of plasma triglyceride was done using commercial kits (Dr. Reddy's Diagnostic Division, Hyderabad, India).
The formula used to measure percent reduction in blood sugar/triglycerides is given above.

HIV-1/MN = test: Anti HIV activity, P24 antigen in infected PM-1 cells; assay type: cell-based; conditions: 96 h; for inhibition at 1 µM: Human immunodeficiency virus 1, PM1, 1 μM, read-out: Percent Inhibition
Description: Human CD4+ T cell line PM-1 used in the assay was cultured in RPMI-1640 medium containing 10% Fetal bovine serum, 2 g/L sodium bicarbonate, 100,000 units/L Pencillin-G and 100 mg/L streptomycin. Healthy PM-1 cells were plated on the first day in a 96 well plate at […]. After 24 h HIV-1/MN was added to the culture and incubated for 2 h for infection. Cells were washed twice with PBS to remove the virus in the culture. Different concentrations of DRF compounds ranging from 10^−4 to 10^−8 M were added to the culture and incubated for 96 h. The viability of cells was then assessed by standard MTT assay and the viral antigen P24 levels were estimated by ELSA method. Based on the MTT assay values the P 24 antigen values were corrected.
All the samples were tested in triplicates and the average was used for calculations. AZT was used as standard compound for comparison.

Human lymphocytes = test: Lymphocyte proliferation, tritiated thymidine incorporation; assay type: cell-based; conditions: 1 μM; PHA-stimulated human lymphocytes
Description: Human lymphocycles were isolated from whole blood by using Ficoll Hypaque Plus (Amersham). On day one, 1 million lymphocytes were seeded into each well of 96 well plate in 100 μL volume of RPMI 1640 medium containing 10% FCS and Phytohemagglutitin A at 10 μg/ml concentration. Plates were incubated at 37° C. in CO2 incubator for 24 h. Test compounds at various concentrations were added to test wells and only medium with vehicle was added to control wells. After 48 h of incubation […] of tritiated thymidine was added to each well. After 24 h of thymidine addition the cells were harvested and the incorporated radioactivity was determined.
Stimulation index (si) was calculated using the formula, […]

KB = conditions: cited from earlier work
[2] = system: P388 lymphocytic leukemia; conditions: cited from earlier work
HIV-1(IIIB) = conditions: cited from earlier work

Compound	GI50 (MCF-7/ADR; Homo sapiens, NCI/ADR-RES) [µM]	GI50 (U251; Homo sapiens, U-251, 48 h) [µM]	GI50 (SW-620; Homo sapiens) [µM]	GI50 (H522; Homo sapiens, NCI-H522, 48 h) [µM]	GI50 (SKOV-3; Homo sapiens, SK-OV-3) [µM]	GI50 (DU145; Homo sapiens, DU-145, 48 h) [µM]	GI50 (A498; Homo sapiens) [µM]	GI50 (M14; Homo sapiens) [µM]	also measured
CCC(=O)OC[C@@]1(C)C2CC[C@]3(CO3)C(C/C=C3/C(=O)OC[C@H]3OC(=O)/C=C/c3ccc4c(c3)OCO4)[C@@]2(C)CC[C@H]1OC(=O)CC (stereo partly drawn) [Example 11, 14-[3′,4′-METHYLENEDIOXYCINNAMOYL]3,19-DIPROPIONYL 8,17-EPOXY ANDROGRAPHOLIDE]									melting point: 76.7 °C
C[C@]12CC[C@@H](OC(=O)CCl)[C@@](C)(COC(=O)CCl)C1CC[C@]1(CO1)C2C/C=C1/C(=O)OC[C@H]1OC(=O)CCl (stereo partly drawn) [Example-4, 3,14,19-TRIS CHLORO ACETYL 8,17-EPOXY ANDROGRAPHOLIDE]	0.8	0.8	25	5.5	0.45	4.5	15		GI50 (UACC62): 0.55 µM
C=C1CCC2[C@](C)(CC[C@@H](O)[C@@]2(C)CO)C1/C=C/C1=CCOC1=O (stereo partly drawn) [14-deoxy-11,12-didehydroandrographolide]									cytotoxic activity in tumor cell lines (tumor cell lines): no cytotoxic activity
CCC(=O)OC[C@@]1(C)C2CC[C@]3(CO3)C(C/C=C3/C(=O)OC[C@H]3OC(=O)/C=C/c3ccc(OC)c(OC)c3)[C@@]2(C)CC[C@H]1OC(=O)CC (stereo partly drawn) [Example-10, 8,17-EPOXY 14-[3′,4′-DIMETHOXYCINNAMOYL]3,19-DIPROPIONYL ANDROGRAPHOLIDE]	1.5	2	0.4	7.5	2.5	2.5	3.5	0.8	
3,14,19-TRIACETYL 8,17-EPOXY ANDROGRAPHOLIDE [Example-2]									GI50 (MCF-7/ADR): 5.5 µM; GI50 (U251; 48 h): 3 µM; GI50 (SW-620): 1 µM; GI50 (H522; 48 h): 20 µM; GI50 (M14): 7.5 µM; GI50 (SKOV-3): 4 µM; GI50 (DU145; 48 h): 20 µM; GI50 (A498): 0.1 µM; Percentage reduction TG ([1]; 250 mg/kg orally for 6 days): 19%; Percent Inhibition (HIV-1/MN; 0.1 μM): 75.31%; Percent Inhibition (HIV-1/MN; 1 μM): 77.25%; Stimulation Index (SI) (Human lymphocytes): 32
CCC(=O)OC[C@@]1(C)C2CC[C@]3(CO3)C(C/C=C3/C(=O)OC[C@H]3OC(=O)/C=C/c3ccccc3)[C@@]2(C)CC[C@H]1OC(=O)CC (stereo partly drawn) [Example-8, 14-CINNAMOYL 3,19-DIPROPIONYL 8,17-EPOXY ANDROGRAPHOLIDE]	0.08	6	2.5	20	10	4	3	2.5	
CCC(=O)OC[C@@]1(C)C2CC[C@]3(CO3)C(C/C=C3/C(=O)OC[C@H]3OC(=O)CNC(=O)OC(C)(C)C)[C@@]2(C)CC[C@H]1OC(=O)CC (stereo partly drawn) [Example-13, 14-[N-BOC GLYCINYL]3,19-DIPROPIONYL 8,17-EPOXY ANDROGRAPHOLIDE]									Percentage reduction TG ([1]; 250 mg/kg orally for 6 days): 31%; inhibition at 1 µM (HIV-1/MN): 73.9%; Stimulation Index (SI) (Human lymphocytes): 24
C=C1CC[C@@H]2[C@](C)(CO[C@@H]3O[C@H](CO)[C@@H](O)[C@H](O)[C@H]3O)CCC[C@@]2(C)[C@@H]1CCC1=CCOC1=O [neoandrographolide]									cytotoxic activity in tumor cell lines (tumor cell lines): no cytotoxic activity
CCC(=O)OC[C@]1(C)C(OC(=O)CC)CC[C@]2(C)C(C/C=C3/C(=O)OCC3OC(=O)/C=C/c3ccc(OC)cc3)[C@]3(CCC12)CO3 (stereo partly drawn) [Example-9, 14-[4′-METHOXYCINNAMOYL]3,19-DIPROPIONYL 8,17-EPOXY ANDROGRAPHOLIDE]	3	3	0.6	4.8	2	2	3	0.75	
CC1(C)OC[C@@]2(C)C3CCC4(CO4)C(C/C=C4/C(=O)OC[C@H]4O)[C@@]3(C)CC[C@H]2O1 (stereo partly drawn) [Example 5, 8,17-EPOXY ANDROGRAPHOLIDE 3,19-ACETONIDE]									melting point: 179 °C
C=C1CC[C@@H]2[C@](C)(CO)[C@H](O)CC[C@@]2(C)[C@@H]1C/C=C1/C(=O)OC[C@H]1O [Andrographolide]									cytotoxic activity against KB (KB): potent cytotoxic activity; cytotoxic activity against P388 [2]: potent cytotoxic activity
C[C@]12CC[C@@H](O)[C@@](C)(CO)C1CC[C@]1(CO1)C2C/C=C1/C(=O)OC[C@H]1OC(=O)/C=C/c1ccccc1 (stereo partly drawn) [Example-7, 14-CINNAMOYL 3,19-DIHYDROXY 8,17-EPOXY ANDROGRAPHOLIDE]	2	6	0.5	6	4	5.5	9	1	Percentage reduction Body weight ([1]; 100 mg/kg orally for 6 days): 29%; Percentage reduction TG ([1]; 100 mg/kg orally for 6 days): 42%; Percentage reduction Body weight ([1]; 250 mg/kg orally for 6 days): 13%; Percentage reduction TG ([1]; 250 mg/kg orally for 6 days): 52%; Percentage reduction TG ([1]; 500 mg/kg orally for 6 days): 62%; inhibition at 1 µM (HIV-1/MN): 68.4%; Stimulation Index (SI) (Human lymphocytes): 25
Dehydroandrographolide Succinic acid monoester [DASM]									minimal concentration inhibitory to HIV-1(IIIB) (HIV-1(IIIB)): 1.6 to 3.1 µg/mL
